Here are results for two compounds from patent US20220054532A1, “VETERINARY COMPOSITIONS AND METHODS OF USE THEREFOR” (priority 2019, published 2022).

What all share (assay type): in vivo
The test system of assay [1] is dogs suffering behavior aberrations and/or anxiety. The experiment in a line: Example 5: behavior aberrations and anxiety, C-BARQ (canine). As to conditions: C-BARQ day 0 vs 60, SID, 0 (no improvement) to 3 (marked improvement). An excerpt:
(§1) This example examines the ability of embodiments of the invention versus Clomicalm® to reduce behavior aberrations and anxiety.
(§2) The first patient group is twenty dogs suffering behavior aberrations and/or anxiety, as determined by the canine behavioral assessment and research questionnaire (“C-BARQ”). See, e.g., P. Wiener et al., Use of questionnaire-based data to assess dog personality, 16 JOURNAL OF VETERINARY BEHAVIOR 81-85 (2016). The second patient group is twenty cats suffering behavior aberrations and/or anxiety, as determined by the feline behavioral assessment and research questionnaire (“Fe-BARQ”).
(§3) Each group is broken into five groups of four animals. The first group receives Clomicalm® as the sole active agent; the second group receives a composition comprising HMW HA as the sole active agent; the third group receives a composition comprising CBD as the sole active agent; the fourth group receives a composition comprising HMW HA and CBD as the active agents; and the fifth group receives a composition comprising HMW HA, CBD, valerian root, and scutillaria as the active agents.
(§4) Each composition is administered for a period of sixty (60) days, once a day (“SID”). Owners complete the species-appropriate C-BARQ or Fe-BARQ on days 0 and 60 of treatment. The results from the overall questionnaire are averaged and characterized as no improvement (score of 0), mild improvement (score of 1), moderate improvement (score of 2), or marked improvement (score of 3).
The following canine scores are observed and the results depicted in FIG. 5a: […]

Assay [2] deals with cats suffering behavior aberrations and/or anxiety. The assay is described as follows: Example 5: behavior aberrations and anxiety, Fe-BARQ (feline). As to conditions: Fe-BARQ day 0 vs 60, SID, 0 (no improvement) to 3 (marked improvement).
Text: as §1, §2, §3, §4
The following feline scores are observed and the results depicted in FIG. 5b: […]

In assay [3] the test system is dogs suffering from seizures. The assay is described as follows: Example 14: seizures in dogs (CBD Complex). The following applies: seizure scale 1 (seizure-free) to 10 (daily or multiple seizures). An excerpt:
(§5) This example examines the ability of embodiments of the invention versus phenobarbital to treat seizures.
(§6) The patient group is twenty-four dogs suffering from seizures as diagnosed by their referring veterinarian. The patient group is broken into six groups of four animals. The first group receives phenobarbital as the sole active agent; the second group receives a composition comprising phenobarbital and Keppra®; the third group receives a composition comprising HMW HA as the sole active agent; the fourth group receives a composition comprising CBD as the sole active agent; the fifth group receives a composition comprising HMW HA and CBD Complex as the active agents; and the sixth group receives a composition comprising HMW HA, CBD Complex, valerian root, and scutillaria as the active agents.
(§7) Each composition is administered for a period of sixty (60) days, BID. Each dog is evaluated on days 0 (“Initial Score”), 15, 30, 45, and 60 (“Final Score”) of treatment. The results are averaged and characterized on a scale of 1 (seizure-free) to 10 (daily seizures or multiple seizures during the event).
The following canine scores are observed and the results depicted in FIG. 14: […]

The subject of assay [4] is dogs suffering from seizures. The experiment in a line: Example 6: seizures in dogs. As to conditions: seizure scale 1 (seizure-free) to 10 (daily or multiple seizures).
Text: as §5
as §6, with “CBD” for “CBD Complex”, “CBD,” for “CBD Complex,”
as §7
The following canine scores are observed and the results depicted in FIG. 6: […]

`CN(C)CCCN1c2ccccc2CCc2ccc(Cl)cc21` [Clomicalm ®]: the entries for the “Improvement Score” value in assay [1] and in assay [2] were “.5” and “.4”, respectively.
Turning to `CCC1(c2ccccc2)C(=O)NC(=O)NC1=O` [Phenobarbital], the “Initial Score” value in assay [3] (day 0) and in assay [4] (day 0) was 9 in each case. Besides, the “Final Score” value in assay [3] (day 60, BID) stood at 8; in assay [4] (day 60, BID) it was 8.
